Reference: ChEMBL document CHEMBL5352470, “RS6077 induces mitotic arrest and selectively activates cell death in human cancer cell lines and in a lymphoma tumor in vivo” (Eur J Med Chem, 2023)
Active and inactive are the calls of the source. The rule behind the calls is not given here.

Assays:
[1] = Metabolic stability in mouse liver microsome assessed as half life measured upto 60 mins by LC-MS/MS analysis; assay type: ADME; details: liver microsomes
[2] = Metabolic stability in human liver microsome assessed as half life measured upto 60 mins by LC-MS/MS analysis; assay type: ADME; details: liver microsomes
[3] = system: TERT-RPE1; test: Induction of cell cycle arrest in human TERT-RPE1 cells assessed as accumulation of cells at G2/M phase at 2500 nM incubated for 72 hrs by annexin V-FITC and PI staining based flow cytometry analysis; assay type: functional
[4] = system: KARPAS-422; test: Antiproliferative activity against human KARPAS-422 cells assessed as inhibition of cell growth measured for 72 hrs by MTT assay; assay type: functional, cell-based; details: KARPAS-422, 72 h
[5] = system: TMD8; test: Antiproliferative activity against human TMD8 cells assessed as inhibition of cell growth measured for 72 hrs by MTT assay; assay type: functional, cell-based; details: TMD8, 72 h
[6] = system: HeLa; test: Induction of cell cycle arrest in human HeLa cells assessed as accumulation of cells at G1 phase at 1000 nM incubated for 72 hrs by annexin V-FITC and PI staining based flow cytometry analysis; assay type: functional
[7] = system: TERT-RPE1; test: Induction of cell cycle arrest in human TERT-RPE1 cells assessed as accumulation of cells at G1 phase at 1000 nM incubated for 72 hrs by annexin V-FITC and PI staining based flow cytometry analysis; assay type: functional
[8] = system: HeLa; test: Induction of cell cycle arrest in human HeLa cells assessed as accumulation of cells at S phase at 100 nM incubated for 72 hrs by annexin V-FITC and PI staining based flow cytometry analysis; assay type: functional
[9] = system: Z-138; test: Antiproliferative activity against human Z138 cells assessed as inhibition of cell growth measured for 72 hrs by MTT assay; assay type: functional, cell-based; details: Z-138, 72 h
[10] = system: TERT-RPE1; test: Induction of cell cycle arrest in human TERT-RPE1 cells assessed as accumulation of cells at G1 phase at 2500 nM incubated for 72 hrs by annexin V-FITC and PI staining based flow cytometry analysis; assay type: functional
[11] = system: HeLa; test: Induction of cell cycle arrest in human HeLa cells assessed as accumulation of cells at G2/M phase at 100 nM incubated for 72 hrs by annexin V-FITC and PI staining based flow cytometry analysis; assay type: functional
[12] = system: AHH-1; test: Induction of cell cycle arrest in human AHH-1 cells assessed as accumulation of cells at G1 phase at 100 nM incubated for 72 hrs by annexin V-FITC and PI staining based flow cytometry analysis; assay type: functional
[13] = system: HeLa; test: Induction of cell cycle arrest in human HeLa cells assessed as accumulation of cells at S phase at 2500 nM incubated for 72 hrs by annexin V-FITC and PI staining based flow cytometry analysis; assay type: functional
[14] = system: AHH-1; test: Induction of cell cycle arrest in human AHH-1 cells assessed as accumulation of cells at G1 phase at 1000 nM incubated for 72 hrs by annexin V-FITC and PI staining based flow cytometry analysis; assay type: functional
[15] = system: HeLa; test: Induction of cell cycle arrest in human HeLa cells assessed as accumulation of cells at G2/M phase at 1000 nM incubated for 72 hrs by annexin V-FITC and PI staining based flow cytometry analysis; assay type: functional
[16] = system: AHH-1; test: Induction of cell cycle arrest in human AHH-1 cells assessed as accumulation of cells at G1 phase at 2500 nM incubated for 72 hrs by annexin V-FITC and PI staining based flow cytometry analysis; assay type: functional
[17] = system: AHH-1; test: Induction of cell cycle arrest in human AHH-1 cells assessed as accumulation of cells at S phase at 100 nM incubated for 72 hrs by annexin V-FITC and PI staining based flow cytometry analysis; assay type: functional
[18] = system: U2932; test: Antiproliferative activity against human U2932 cells assessed as inhibition of cell growth measured for 72 hrs by MTT assay; assay type: functional, cell-based; details: U2932, 72 h
[19] = system: Maver1; test: Antiproliferative activity against human MAVER-1 cells assessed as inhibition of cell growth measured for 72 hrs by MTT assay; assay type: functional, cell-based; details: Maver1, 72 h
[20] = system: HeLa; test: Induction of cell cycle arrest in human HeLa cells assessed as accumulation of cells at G1 phase at 2500 nM incubated for 72 hrs by annexin V-FITC and PI staining based flow cytometry analysis; assay type: functional
[21] = system: HeLa; test: Induction of cell cycle arrest in human HeLa cells assessed as accumulation of cells at G2/M phase at 2500 nM incubated for 72 hrs by annexin V-FITC and PI staining based flow cytometry analysis; assay type: functional
[22] = system: AHH-1; test: Induction of cell cycle arrest in human AHH-1 cells assessed as accumulation of cells at sub-G1 phase incubated for 72 hrs by annexin V-FITC and PI staining based flow cytometry analysis; assay type: functional
[23] = system: TERT-RPE1; test: Induction of cell cycle arrest in human TERT-RPE1 cells assessed as accumulation of cells at S phase at 1000 nM incubated for 72 hrs by annexin V-FITC and PI staining based flow cytometry analysis; assay type: functional
[24] = system: HeLa; test: Induction of cell cycle arrest in human HeLa cells assessed as accumulation of cells at S phase at 1000 nM incubated for 72 hrs by annexin V-FITC and PI staining based flow cytometry analysis; assay type: functional
[25] = system: TERT-RPE1; test: Induction of cell cycle arrest in human TERT-RPE1 cells assessed as accumulation of cells at G2/M phase at 100 nM incubated for 72 hrs by annexin V-FITC and PI staining based flow cytometry analysis; assay type: functional
[26] = system: HeLa; test: Induction of cell cycle arrest in human HeLa cells assessed as accumulation of cells at sub-G1 phase incubated for 72 hrs by annexin V-FITC and PI staining based flow cytometry analysis; assay type: functional
[27] = system: TERT-RPE1; test: Induction of cell cycle arrest in human TERT-RPE1 cells assessed as accumulation of cells at G1 phase at 100 nM incubated for 72 hrs by annexin V-FITC and PI staining based flow cytometry analysis; assay type: functional
[28] = system: TERT-RPE1; test: Induction of cell cycle arrest in human TERT-RPE1 cells assessed as accumulation of cells at S phase at 2500 nM incubated for 72 hrs by annexin V-FITC and PI staining based flow cytometry analysis; assay type: functional
[29] = system: HeLa; test: Induction of cell cycle arrest in human HeLa cells assessed as accumulation of cells at G1 phase at 100 nM incubated for 72 hrs by annexin V-FITC and PI staining based flow cytometry analysis; assay type: functional
[30] = system: AHH-1; test: Induction of cell cycle arrest in human AHH-1 cells assessed as accumulation of cells at G2/M phase at 2500 nM incubated for 72 hrs by annexin V-FITC and PI staining based flow cytometry analysis; assay type: functional
[31] = system: TERT-RPE1; test: Induction of cell cycle arrest in human TERT-RPE1 cells assessed as accumulation of cells at G2/M phase at 1000 nM incubated for 72 hrs by annexin V-FITC and PI staining based flow cytometry analysis; assay type: functional
[32] = system: Farage; test: Antiproliferative activity against human Farage cells assessed as inhibition of cell growth measured for 72 hrs by MTT assay; assay type: functional, cell-based
[33] = system: AHH-1; test: Induction of cell cycle arrest in human AHH-1 cells assessed as accumulation of cells at S phase at 1000 nM incubated for 72 hrs by annexin V-FITC and PI staining based flow cytometry analysis; assay type: functional
[34] = system: AHH-1; test: Induction of cell cycle arrest in human AHH-1 cells assessed as accumulation of cells at S phase at 2500 nM incubated for 72 hrs by annexin V-FITC and PI staining based flow cytometry analysis; assay type: functional
[35] = system: AHH-1; test: Induction of apoptosis in human AHH-1 cells at 100 to 2500 nM measured after 72 hrs by annexin V-FITC and PI staining based flow cytometry analysis; assay type: functional, cell-based; details: dose 100-2500 nM
[36] = system: TERT-RPE1; test: Induction of cell cycle arrest in human TERT-RPE1 cells assessed as accumulation of cells at S phase at 100 nM incubated for 72 hrs by annexin V-FITC and PI staining based flow cytometry analysis; assay type: functional
[37] = system: AHH-1; test: Induction of cell cycle arrest in human AHH-1 cells assessed as accumulation of cells at G2/M phase at 100 nM incubated for 72 hrs by annexin V-FITC and PI staining based flow cytometry analysis; assay type: functional
[38] = system: AHH-1; test: Induction of cell cycle arrest in human AHH-1 cells assessed as accumulation of cells at G2/M phase at 1000 nM incubated for 72 hrs by annexin V-FITC and PI staining based flow cytometry analysis; assay type: functional

CCOc1ccc2ccc(=O)oc2c1 [ETHOXYCOUMARIN]
half-life [1]: 3.3 min | half-life [2]: 8.3 min

CC(C)NCC(O)COc1cccc2ccccc12 (stereo not given) [PROPRANOLOL]
half-life [1]: 11.8 min | half-life [2]: 47 min

COc1ccc(/C=C\c2cc(OC)c(OC)c(OC)c2)cc1O [COMBRETASTATIN A4]
Activity [3]: 73% | IC50 [4]: 0.58 nM | IC50 [5]: 0.66 nM | Activity [6]: 10.1% | Activity [7]: 17.1% | Activity [8]: 15.5% | IC50 [9]: 0.78 nM | Activity [10]: 19% | Activity [11]: 61.1% | Activity [12]: 8.6% | Activity [13]: 9.2% | Activity [14]: 7.8% | Activity [15]: 73.1% | Activity [16]: 7% | Activity [17]: 17% | IC50 [18]: 0.89 nM | IC50 [19]: 4.6 nM | Activity [20]: 8.8% | Activity [21]: 75.2% | Activity [22]: Active | Activity [23]: 8.4% | Activity [24]: 16.8% | Activity [25]: 68% | Activity [26]: Active | Activity [27]: 23% | Activity [28]: 5.4% | Activity [29]: 23.4% | Activity [30]: 74.1% | Activity [31]: 74.6% | IC50 [32]: 0.7 nM | Activity [33]: 13.4% | Activity [34]: 10.3% | Activity [35]: Active | Activity [36]: 9% | Activity [37]: 74.5% | Activity [38]: 78.8%
